Data as given in patent publication US4433182A, “Insecticidal 2,2'-bridged[1,1'-biphenyl]-3-ylmethyl esters” (FMC Corporation, priority 1981, dated 1984).
Read-outs that look alike come from different tables or passages of the source.

Assays:
Type in all cases: in vivo
[1] = tested on: southern armyworm (Spodoptera eridania); test: Topical application to southern armyworm larvae; details: SAW, 24 hours after application
Procedure: (§1) The activity was evaluated in topical application to southern armyworm (Spodoptera eridania), Mexican bean beetle (Epilachna varivestis), large milkweed bug (Oncopeltus fasciatus), cabbage looper (Trichoplusia ni), and tobacco budworm (Heliothis virescens). Two replicates of 10 test larvae per replicate were placed in 9 cm petri dishes, each lined with a piece of filter paper and a food source. On the second or third dorsal thoracic segment of each larva was placed a 1 microliter droplet containing the desired amount of the test compound in acetone. The toxic effect of the compound was determined 24 hours after application. An insect was considered dead if it could no longer right itself and move in an oriented pattern.

[2] = tested on: large milkweed bug (Oncopeltus fasciatus); test: Topical application to large milkweed bug; details: MWB, 24 hours after application
Procedure: as §1

[3] = tested on: Mexican bean beetle (Epilachna varivestis); test: Topical application to Mexican bean beetle; details: MBB, 24 hours after application
Procedure: as §1

[4] = tested on: cabbage looper (Trichoplusia ni); test: Topical application to cabbage looper; details: CL, 24 hours after application
Procedure: as §1

[5] = tested on: tobacco budworm (Heliothis virescens); test: Topical application to tobacco budworm; details: TBW, 24 hours after application
Procedure: as §1

[6] = tested on: southern armyworm (Spodoptera eridania); test: Foliar application, southern armyworm mortality; details: read-out: Mortality (% killed)
Procedure: (§2) The compounds were also tested in foliar applications at various concentrations in aqueous solutions containing 10% acetone and 0.25% emulsifier. The plants (English fava bean for pea aphid and pinto bean for the remaining species) were placed on a revolving turntable in a hood, and the test solutions were applied with a sprayer. The test solutions were applied to the upper and lower surfaces of the plant leaves while the turntable revolved 10 times (5 for upper surface and 5 for lower surface). The total spray time was approximately one minute, and the leaves were covered to runoff. In every case the lowest rate was applied first and the highest rate last. The plants were then allowed to dry. The treated leaves were removed and placed in 240 ml or 480 ml wax treated containers. Ten individuals of the appropriate species were placed in each container and the container capped. Mortality was read 48 hours post-treatment unless otherwise noted. Two replicates of ten individuals were made at each rate. Foliar evaluation used southern armyworm (Spodoptera eridania), Mexican bean beetle (Epilachna varivestis), pea aphid (Acyrthosiphon pisum), and twospotted spider mite (Tetranychus urticae).

[7] = tested on: Mexican bean beetle (Epilachna varivestis); test: Foliar application, Mexican bean beetle mortality; details: read-out: Mortality (% killed)
Procedure: as §2

[8] = tested on: pea aphid (Acyrthosiphon pisum); test: Foliar application, pea aphid mortality; details: read-out: Mortality (% killed)
Procedure: as §2

[9] = tested on: twospotted spider mite (Tetranychus urticae); test: Foliar application, twospotted spider mite mortality; details: read-out: Mortality (% killed)
Procedure: as §2

Work on CC1(C)[C@H](C=C(Cl)Cl)[C@@H]1C(=O)OCc1cccc2c1CCc1ccccc1-2 (relative stereo) [Ex. I (cis), (9,10-dihydro-1-phenanthryl)methyl cis-3-(2,2-dichloroethenyl)-2,2-dimethylcyclopropanecarboxylate] yielded an LD50 [1] of 121 ng/insect, an LD50 [2] of 176 ng/insect and an LD50 [3] of 64 ng/insect. It also gave an LD50 [4] of 241 ng/insect, an LD50 [5] of 193 ng/insect and a mortality at 16 ppm ([6]; SAW, foliar, 48 hours) of 10%. The mortality at 32 ppm ([6]; SAW, foliar, 32 ppm, 48 hours) was 30%, the mortality at 80 ppm ([6]; SAW, foliar, 80 ppm, 48 hours) was 80% and the mortality at 16 ppm ([7]; MBB, foliar, 48 hours) was 30%. For the same molecule, the mortality at 32 ppm ([7]; MBB, foliar, 48 hours) was 35%, the mortality at 80 ppm ([7]; MBB, foliar, 80 ppm, 48 hours) was 75% and the mortality at 16 ppm ([8]; PA, foliar, 48 hours) was 55%. It also gave a mortality at 32 ppm ([8]; PA, foliar, 48 hours) of 90%.

For CC1(C)[C@H](C(=O)OCc2cccc3c2CCc2ccccc2-3)[C@@H]1C=C(Cl)C(F)(F)F (relative stereo) [Ex. II (cis), (9,10-dihydro-1-phenanthryl)methyl cis-3-(2-chloro-3,3,3-trifluoromethyl-1-propenyl)-2,2-dimethylcyclopropanecarboxylate], the LD50 [1] was 36 ng/insect, the LD50 [2] was 170 ng/insect and the LD50 [3] was 9.4 ng/insect. For the same molecule, the LD50 [4] was 61 ng/insect, the LD50 [5] was 45 ng/insect and the mortality at 8 ppm ([6]; 48 h) was 30%. The mortality at 32 ppm ([6]; 48 h) was 95%, the mortality at 8 ppm ([7]; 48 h) was 90% and the mortality at 10 ppm ([8]; 48 h) was 85%. It also gave a mortality at 32 ppm ([9]; 48 h) of 78%.

With CC1(C)[C@H](C=C(Cl)Cl)[C@@H]1C(=O)OCc1cccc2c1CCCc1ccccc1-2 (relative stereo) [Ex. III (cis), (6,7-dihydro-5H-dibenzo[a,c]cyclohepten-4-yl)methyl cis-3-(2,2-dichloroethenyl)-2,2-dimethylcyclopropanecarboxylate] the LD50 [1] was 96 ng/insect, the LD50 [2] was 104 ng/insect and the LD50 [3] was 11 ng/insect. The LD50 [4] was 62 ng/insect, the LD50 [5] was 375 ng/insect and the mortality at 4.5 ppm ([6]; SAW, foliar, 4.5 ppm, 48 hours) was 5%. The mortality at 10 ppm ([6]; SAW, foliar, 10 ppm, 48 hours) was 40%, the mortality at 4.5 ppm ([7]; MBB, foliar, 4.5 ppm, 48 hours) was 55% and the mortality at 10 ppm ([7]; MBB, foliar, 10 ppm, 48 hours) was 85%. For the same molecule, the mortality at 4.5 ppm ([8]; PA, foliar, 4.5 ppm, 48 hours) was 55%, the mortality at 10 ppm ([8]; PA, foliar, 10 ppm, 48 hours) was 90% and the mortality at 10 ppm ([9]; TSM, foliar, 10 ppm, 48 hours) was 13%.

CC1(C)[C@@H](C=C(Cl)Cl)[C@@H]1C(=O)OCc1cccc2c1CCCc1ccccc1-2 (relative stereo) [Ex. III (trans), (6,7-dihydro-5H-dibenzo[a,c]cyclohepten-4-yl)methyl trans-3-(2,2-dichloroethenyl)-2,2-dimethylcyclopropanecarboxylate] gave an LD50 [1] of 95 ng/insect, an LD50 [2] of 315 ng/insect and an LD50 [3] of 50 ng/insect. It also gave an LD50 [4] of 92 ng/insect, an LD50 [5] of 355 ng/insect and a mortality at 4 ppm ([6]; SAW, foliar, 48 hours) of 10%. For the same molecule, the mortality at 16 ppm ([6]; SAW, foliar, 48 hours) was 100%, the mortality at 4 ppm ([7]; MBB, foliar, 48 hours) was 20% and the mortality at 16 ppm ([7]; MBB, foliar, 48 hours) was 55%. For the same molecule, the mortality at 4 ppm ([8]; PA, foliar, 48 hours) was 80% and the mortality at 16 ppm ([8]; PA, foliar, 48 hours) was 90%.

With CC1(C)[C@H](C(=O)OCc2cccc3c2CCCc2ccccc2-3)[C@@H]1C=C(Cl)C(F)(F)F (relative stereo) [Ex. IV (cis), (6,7-dihydro-5H-dibenzo[a,c]cyclohepten-4-yl)methyl cis-3-(2-chloro-3,3,3-trifluoromethyl-1-propenyl)-2,2-dimethylcyclopropanecarboxylate] the LD50 [1] was 54 ng/insect, the LD50 [2] was 83 ng/insect and the LD50 [3] was 4.26 ng/insect. For the same molecule, the LD50 [4] was 64 ng/insect, the LD50 [5] was 212 ng/insect and the mortality at 10 ppm ([6]; 48 h) was 75%. It also gave a mortality at 2.1 ppm ([7]; 48 h) of 100%, a mortality at 0.25 ppm ([8]; 48 h) of 80% and a mortality at 2.1 ppm ([9]; 48 h) of 4%. It also gave a mortality at 10 ppm ([9]; 48 h) of 100%.

CC1(C)[C@H](C(=O)OCc2cccc3c2Cc2ccccc2-3)[C@@H]1C=C(Cl)Cl (relative stereo) [Ex. V (cis), 9H-fluorene-1-methyl cis-3-(2,2-dichloroethenyl)-2,2-dimethylcyclopropanecarboxylate] gave an LD50 [1] of 460 ng/insect, an LD50 [3] of 3320 ng/insect and a mortality at 64 ppm ([6]; 48 h) of 0%. The mortality at 500 ppm ([6]; 48 h) was 100%, the mortality at 64 ppm ([7]; 48 h) was 0% and the mortality at 64 ppm ([8]; 48 h) was 30%. For the same molecule, the mortality at 500 ppm ([8]; 48 h) was 90% and the mortality at 500 ppm ([9]; 48 h) was 0%.

In the case of CC1(C)[C@@H](C=C(Cl)Cl)[C@@H]1C(=O)OCc1cccc2c1Cc1ccccc1-2 (relative stereo) [Ex. V (trans), 9H-fluorene-1-methyl trans-3-(2,2-dichloroethenyl)-2,2-dimethylcyclopropanecarboxylate], the mortality at 64 ppm ([6]; 48 h) is reported as 0%, the mortality at 500 ppm ([6]; 48 h) is reported as 25% and the mortality at 64 ppm ([7]; 48 h) is reported as 15%. It also gave a mortality at 64 ppm ([8]; 48 h) of 20%, a mortality at 500 ppm ([8]; 48 h) of 0% and a mortality at 500 ppm ([9]; 48 h) of 0%.

Molecule CC1(C)[C@H](C(=O)OCc2cccc3c2Cc2ccccc2-3)[C@@H]1C=C(Cl)C(F)(F)F (relative stereo) [Ex. VI (cis), 9H-fluorene-1-methyl cis-3-(2-chloro-3,3,3-trifluoromethyl-1-propenyl)-2,2-dimethylcyclopropanecarboxylate] has an LD50 [1] of 1160 ng/insect, an LD50 [3] of 762 ng/insect and a mortality at 64 ppm ([6]; 48 h) of 95%. The mortality at 500 ppm ([6]; 48 h) was 100%, the mortality at 64 ppm ([7]; 48 h) was 0% and the mortality at 64 ppm ([8]; 48 h) was 50%. The mortality at 500 ppm ([8]; 48 h) was 90% and the mortality at 500 ppm ([9]; 48 h) was 0%.

CC1(C)[C@H](C=C(Cl)C(F)(F)F)[C@@H]1C(=O)OCc1cccc2c1CCCCc1ccccc1-2 (relative stereo) [Ex. VII (cis), (5,6,7,8-tetrahydrodibenzo[a,c]cycloocten-4-yl)methyl cis-3-(2-chloro-3,3,3-trifluoropropenyl)-2,2-dimethylcyclopropanecarboxylate] showed an LD50 [1] of 410 ng/insect, an LD50 [2] of 396 ng/insect and an LD50 [3] of 20.6 ng/insect. For the same molecule, the mortality at 4 ppm ([7]; MBB, foliar, 48 hours) was 95%, the mortality at 4 ppm ([8]; PA, foliar, 48 hours) was 0% and the mortality at 16 ppm ([9]; TSM, foliar, 48 hours) was 24%.

CC1(C)[C@H](C=C(Cl)Cl)[C@@H]1C(=O)OCc1cccc(-c2ccccc2)c1 (relative stereo) [Ref., [(1,1biphenyl)-3-yl]methyl cis3-(2,2-dichloroethenyl)-2,2-dimethylcyclopropanecarboxylate, reference compound] gave an LD50 [1] of 27 ng/insect, an LD50 [2] of 620 ng/insect and an LD50 [3] of 18 ng/insect. For the same molecule, the LD50 [4] was 560 ng/insect, the LD50 [5] was 2330 ng/insect and the mortality at 4 ppm ([6]; SAW, foliar, 48 hours) was 90%. The mortality at 32 ppm ([7]; MBB, foliar, 48 hours) was 50%, the mortality at 32 ppm ([8]; PA, foliar, 48 hours) was 70% and the mortality at 500 ppm ([9]; TSM, foliar, 500 ppm, 48 hours) was 33%.

With CC1(C)[C@H](C(=O)OCc2cccc3c2CCCCc2ccccc2-3)[C@@H]1C=C(Cl)Cl [Ex. VIII (1R,cis), (5,6,7,8-tetrahydrodibenzo[a,c]cycloocten-4-yl)methyl 1R,cis-3-(2,2-dichloroethenyl)-2,2-dimethylcyclopropanecarboxylate] the LD50 [1] was 201 ng/insect, the LD50 [2] was 460 ng/insect and the mortality at 4 ppm ([7]; MBB, foliar, 48 hours) was 50%. The mortality at 4 ppm ([8]; PA, foliar, 48 hours) was 0% and the mortality at 16 ppm ([9]; TSM, foliar, 48 hours) was 14%.
